Among the test systems are M14 melanoma; HOP-92 NSCLC; SW-620 colon; 786-0 renal; U251 CNS; UO-31 renal; COLO 205 colon; UACC-62 melanoma; HCT-116 colon.
What all share (test): NCI tumour cell line growth inhibition, 48 h

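Following 48 hours of exposure in 96-well plates, responses at five concentrations were used to interpolate endpoints linearly. Abbreviation: GI50, concentration required for 50% inhibition of growth. TGI: concentration producing complete growth inhibition.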 Where only a bound is given, the exact number is not on record here.

Take `COc1ccc(N2C(=O)C3c4[nH]c5c(C)cccc5c4C4CCC(C(C)C)CC4C3C2=O)cc1` (stereo not given): the TGI in the test with M14 melanoma amounted to 26.8 µM; in the test with HOP-92 NSCLC, 34.4 µM; with SW-620 colon it was 45.7 µM; in the test with 786-0 renal it was 19.5 µM; in the test with U251 CNS it was 29.9 µM; in the test with UO-31 renal it was 31.4 µM. In the test on COLO 205 colon, the TGI was > 100 µM.

As to `CC(=O)n1[nH]c(=O)n(-c2ccc(Cl)cc2)c1=O`, the TGI in the test with M14 melanoma, with UACC-62 melanoma, in the test with SW-620 colon, in the test with HCT-116 colon, in the test with 786-0 renal and in the test on U251 CNS was > 100 µM throughout. Besides, the TGI in the test with UO-31 renal and with COLO 205 colon was > 100 µM in each case.

Turning to `CC1OC(OC2C(O[C@H]3CC[C@@]4(C)C(=CC[C@H]5[C@@H]6C[C@@H]7O[C@]8(CC[C@@H](C)CO8)[C@@H](C)[C@@H]7[C@@]6(C)CC[C@@H]54)C3)OC(CO)C(O)C2OC2OC(CO)C(O)C(O)C2O)C(O)C(O)C1O` (stereo not given in full), the TGI in the test with HOP-92 NSCLC was found to be 3.68 µM; in the test with SW-620 colon it was 4.39 µM; with 786-0 renal, 2.97 µM; in the test with UO-31 renal, 3.5 µM; in the test with COLO 205 colon, 3.41 µM.

Regarding `CCOP(=O)(/C=C/n1cc(C)c(=O)[nH]c1=O)OCC`, the TGI in the test with M14 melanoma, with UACC-62 melanoma, in the test with SW-620 colon, in the test with HCT-116 colon, with 786-0 renal and in the test with U251 CNS was > 100 µM in each case. The TGI with COLO 205 colon is > 100 µM.

As to `N#Cc1c(NC(=S)Nc2ccc(Cl)cc2)sc2c1CCN(N1CCc3c(sc(NC(=S)Nc4ccc(Cl)cc4)c3C#N)C1)C2`, the TGI in the test on M14 melanoma was 23.2 µM; in the test with UACC-62 melanoma, 41.8 µM; with SW-620 colon it was > 100 µM; in the test on HCT-116 colon, > 100 µM; in the test with 786-0 renal, 58.8 µM; in the test on U251 CNS, 86.2 µM. Moreover, the results for the TGI in the test with UO-31 renal and in the test on COLO 205 colon were 59.9 µM and 33.4 µM, respectively.

For the compound `O=C1c2ccccc2-c2nc3ccncc3n21`, the TGI in the test with HOP-92 NSCLC, in the test with UACC-62 melanoma, in the test with SW-620 colon, in the test with HCT-116 colon, with 786-0 renal and with U251 CNS was > 100 µM throughout. The TGI with UO-31 renal and with COLO 205 colon was > 100 µM throughout.

For `COc1cc2c(cc1OC)C(=O)N(c1ccc(OCCN3CCCC3)cc1)C2`, the TGI in the test with M14 melanoma, in the test on HOP-92 NSCLC, in the test on UACC-62 melanoma, with SW-620 colon, in the test with HCT-116 colon and with 786-0 renal was > 100 µM each time. Besides, the TGI with U251 CNS and in the test on COLO 205 colon was > 100 µM each time.

Consider `C/C(=C1\N=C(c2ccccc2)OC1=O)c1ccccc1`, for which the TGI in the test with M14 melanoma, in the test on HOP-92 NSCLC, in the test on UACC-62 melanoma, with SW-620 colon, in the test with HCT-116 colon and with U251 CNS was > 100 µM throughout. Also, the TGI with UO-31 renal and in the test with COLO 205 colon was > 100 µM each time.

For `CC(Nc1ccc(Cl)cc1)c1ccncc1` (stereo not given), the TGI in the test on M14 melanoma, with SW-620 colon, in the test on HCT-116 colon, in the test with 786-0 renal, in the test with U251 CNS and in the test with UO-31 renal was > 100 µM each time. In addition, the TGI in the test on COLO 205 colon was > 100 µM.

Take `O=C(Nc1ccccc1)N1CCN(C(=O)Nc2ccccc2)C1=S`: the TGI in the test on M14 melanoma is > 100 µM; with HOP-92 NSCLC it was 63.5 µM; with SW-620 colon, > 100 µM; with HCT-116 colon, > 100 µM; in the test with 786-0 renal, > 100 µM; in the test on U251 CNS it was > 100 µM. Also, the TGI with UO-31 renal was 60.7 µM; in the test on COLO 205 colon, > 100 µM.

Regarding `N[C@@H](CCC(=O)NC(Cc1ccccc1)C(=O)NCP(=O)(O)O)C(=O)O` (stereo not given in full), the TGI with UACC-62 melanoma, in the test with SW-620 colon, with HCT-116 colon, in the test on 786-0 renal, with U251 CNS and with UO-31 renal was > 100 µM each time. Further, the TGI in the test with COLO 205 colon was > 100 µM.

For the compound `O=C1c2cc3c(cc2-c2c1c1cc(F)c(F)cc1c(=O)n2CCCn1ccnc1)OCO3`, the GI50 in the test on M14 melanoma was 0.0101 µM; with SW-620 colon, < 0.01 µM; in the test on HCT-116 colon, < 0.01 µM; with U251 CNS, < 0.01 µM; in the test with UO-31 renal, 0.0465 µM; in the test with COLO 205 colon it was 0.0293 µM. In addition, the TGI in the test on M14 melanoma is > 100 µM; with SW-620 colon it was > 100 µM; with HCT-116 colon, 10.8 µM; in the test on U251 CNS it was 10.2 µM; in the test on UO-31 renal, 0.814 µM; in the test on COLO 205 colon it was 1.62 µM.

Regarding `Cc1nc(NC(C)(CO)CO)nc(N/N=C/c2ccc(Cl)cc2)c1C(=O)Nc1ccc(Cl)cc1`, the TGI in the test with M14 melanoma, in the test on UACC-62 melanoma, with SW-620 colon, with HCT-116 colon, in the test with 786-0 renal and in the test with U251 CNS was > 100 µM in each case. The TGI with UO-31 renal and with COLO 205 colon was > 100 µM each time.

For `CC(C)(C)C1CCC2c3c([nH]c4ccccc34)C3C(=O)N(c4ccc([N+](=O)[O-])cc4)C(=O)C3C2C1` (stereo not given), the TGI is 86.2 µM in the test on M14 melanoma; 17.5 µM in the test on HOP-92 NSCLC; 39 µM in the test with UACC-62 melanoma; > 100 µM in the test on SW-620 colon; 22.6 µM in the test with HCT-116 colon; 18.9 µM in the test on 786-0 renal. Further, the TGI was 38.5 µM in the test on U251 CNS and 21.1 µM in the test on COLO 205 colon.

On to `Nc1c(C(=O)c2ccc(Cl)c(Cl)c2)[nH]c(NCc2ccccc2)c1C(=S)Nc1ccccc1`, for which the TGI was 12.6 µM in the test on M14 melanoma; 29.2 µM with UACC-62 melanoma; 10.1 µM with SW-620 colon; 12.6 µM with HCT-116 colon; 27.9 µM with 786-0 renal; 15.7 µM in the test with U251 CNS. In addition, the values for the TGI in the test on UO-31 renal and with COLO 205 colon were 21.6 µM and 3.79 µM, respectively.

For the compound `CN(CCCCCl)P(=O)(OCc1ccc([N+](=O)[O-])o1)OCC1OC(n2ccc(N)nc2=O)C(O)C1O` (stereo not given), the TGI in the test with M14 melanoma is > 100 µM; in the test with UACC-62 melanoma, 40.6 µM; in the test on SW-620 colon, 69.6 µM; with HCT-116 colon it was 25.9 µM; in the test on 786-0 renal it was > 100 µM; in the test on U251 CNS, 11.1 µM. In addition, the values for the TGI with UO-31 renal and with COLO 205 colon were > 100 µM and 2.69 µM, respectively.

The values above are taken from PubChem BioAssay (NCI).
